# Where “and” joins values, the source holds several entries; their conditions need not be identical. Equal entries are not always repeated. Inconclusive results and toxic doses are left out.
# Tested on: L1210 leukemia ip in BDF1 mice, survival T/C
# Test: NCI In Vivo Anticancer Drug Screen. Data for tumor model L1210 Leukemia (intraperitoneal) in B6D2F1 (BDF1) mice
# Conditions: higher = longer survival
# Summary of the method: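 Mice bearing the transplanted tumor received compound or vehicle. Survival of the treated group was divided by that of the vehicle-treated control group to give the ratio.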
# [1] = endpoint: mean survival time, dose: 100.0 mg/kg/injection, schedule: Q01DX001 (ip), vehicle: saline
# [2] = endpoint: mean survival time, dose: 200.0 mg/kg/injection, schedule: Q01DX001 (ip), vehicle: saline
# [3] = endpoint: mean survival time, dose: 400.0 mg/kg/injection, schedule: Q01DX001 (ip), vehicle: saline
# [4] = endpoint: mean survival time, dose: 200.0 mg/kg/injection, schedule: Q04DX003 (ip), vehicle: saline with Tween-80
# [5] = endpoint: mean survival time, dose: 50.0 mg/kg/injection, schedule: Q01DX009 (ip), vehicle: saline with Tween-80
# [6] = endpoint: mean survival time, dose: 100.0 mg/kg/injection, schedule: Q01DX009 (ip), vehicle: saline with Tween-80
# [7] = endpoint: mean survival time, dose: 100.0 mg/kg/injection, schedule: Q04DX003 (ip), vehicle: saline with Tween-80
# [8] = endpoint: mean survival time, dose: 400.0 mg/kg/injection, schedule: Q04DX003 (ip), vehicle: saline with Tween-80
smiles,measurement,setting,value
O=C(OCc1cnccn1)c1cnccn1,T/C,[1],107 % of control
same,T/C,[2],94 % of control
same,T/C,[3],100 % of control
O=C(O)c1cc([N+](=O)[O-])ccc1Nc1ccccc1,T/C,[4],95 % of control
O=C(NNc1nc(-c2ccccc2)nc(-c2ccccc2)n1)c1ccccc1,T/C,[1],95 % of control
same,T/C,[2],96 % of control
same,T/C,[3],89 % of control
Nc1nc(Cl)c2[nH]cnc2n1,T/C,"endpoint: mean survival time, dose: 0.25 mg/kg/injection, schedule: Q01DX009 (ip), vehicle: saline with Tween-80",110 % of control
same,T/C,"endpoint: mean survival time, dose: 0.5 mg/kg/injection, schedule: Q01DX009 (ip), vehicle: saline with Tween-80",112 % of control
same,T/C,"endpoint: mean survival time, dose: 1.0 mg/kg/injection, schedule: Q01DX009 (ip), vehicle: saline with Tween-80",117 % of control
same,T/C,"endpoint: mean survival time, dose: 6.0 mg/kg/injection, schedule: Q01DX009 (ip), vehicle: saline with Tween-80",150 % of control
same,T/C,"endpoint: mean survival time, dose: 8.8 mg/kg/injection, schedule: Q04DX003 (ip), vehicle: saline with Tween-80",112 % of control
same,T/C,"endpoint: mean survival time, dose: 13.0 mg/kg/injection, schedule: Q01DX009 (ip), vehicle: Klucel (hydroxypropylcellulose) (HPC)",99 % of control
same,T/C,"endpoint: mean survival time, dose: 20.0 mg/kg/injection, schedule: Q01DX009 (ip), vehicle: Klucel (hydroxypropylcellulose) (HPC)",101 % of control
same,T/C,"endpoint: mean survival time, dose: 30.0 mg/kg/injection, schedule: Q01DX009 (ip), vehicle: Klucel (hydroxypropylcellulose) (HPC)",101 % of control
same,T/C,"endpoint: mean survival time, dose: 30.0 mg/kg/injection, schedule: Q04DX003 (ip), vehicle: saline with Tween-80",195 % of control
same,T/C,"endpoint: mean survival time, dose: 37.5 mg/kg/injection, schedule: Q04DX009 (ip), vehicle: Klucel (hydroxypropylcellulose) (HPC)",94 % of control
same,T/C,"endpoint: mean survival time, dose: 44.0 mg/kg/injection, schedule: Q01DX009 (ip), vehicle: Klucel (hydroxypropylcellulose) (HPC)",100 % of control
same,T/C,[5],107 % of control
same,T/C,"endpoint: mean survival time, dose: 66.0 mg/kg/injection, schedule: Q01DX009 (ip), vehicle: Klucel (hydroxypropylcellulose) (HPC)",104 % of control
same,T/C,"endpoint: mean survival time, dose: 75.0 mg/kg/injection, schedule: Q04DX009 (ip), vehicle: Klucel (hydroxypropylcellulose) (HPC)",104 % of control
same,T/C,[6],124 % of control
same,T/C,"endpoint: mean survival time, dose: 150.0 mg/kg/injection, schedule: Q04DX009 (ip), vehicle: Klucel (hydroxypropylcellulose) (HPC)",97 % of control
O=C(c1ccccc1)c1ccc(C(=O)c2ccccc2)c2c1C(=O)c1ccccc1C2=O,T/C,[7],92 % of control
same,T/C,[4],95 % of control
same,T/C,[8],98 % of control
CCCCCCSC(=O)Nc1ccc(C)c(NC(=O)SCCCCCC)c1,T/C,[7],91 % of control
same,T/C,[4],89 % of control
COc1cc(Oc2c(OC)cc(C(C)=O)cc2OC)cc(OC)c1OC,T/C,[7],101 % of control
same,T/C,[4],97 % of control
same,T/C,[8],97 % of control
Nc1ccn(C2CC(O)C(CO)O2)c(=O)n1 (centres undefined),T/C,"endpoint: median survival time, dose: 75.0 mg/kg/injection, schedule: Q01DX001 (ip), vehicle: other",100 % of control and 101 % of control
same,T/C,"endpoint: median survival time, dose: 150.0 mg/kg/injection, schedule: Q01DX001 (ip), vehicle: other",99 % of control and 100 % of control
CC(C)=CCC/C(C)=C\CCl,T/C,"endpoint: mean survival time, dose: 25.0 mg/kg/injection, schedule: Q01DX009 (ip), vehicle: saline with Tween-80",93 % of control
same,T/C,[5],106 % of control
same,T/C,[6],97 % of control and 101 % of control
same,T/C,[7],104 % of control
same,T/C,[4],93 % of control
same,T/C,[8],90 % of control
O=C1C=C(O)c2ccc(=O)[nH]c2C1=O,T/C,[1],95 % of control
same,T/C,[2],98 % of control
NC(N)=Nc1ccc(C(=O)Oc2ccc([N+](=O)[O-])cc2Cl)cc1,T/C,"endpoint: mean survival time, dose: 25.0 mg/kg/injection, schedule: Q01DX009 (ip), vehicle: saline",94 % of control
same,T/C,"endpoint: mean survival time, dose: 50.0 mg/kg/injection, schedule: Q01DX009 (ip), vehicle: saline",97 % of control
same,T/C,"endpoint: mean survival time, dose: 100.0 mg/kg/injection, schedule: Q01DX009 (ip), vehicle: saline",87 % of control
same,T/C,"endpoint: mean survival time, dose: 100.0 mg/kg/injection, schedule: Q04DX003 (ip), vehicle: saline",96 % of control
same,T/C,"endpoint: mean survival time, dose: 200.0 mg/kg/injection, schedule: Q04DX003 (ip), vehicle: saline",94 % of control
COc1ccc(NC(=O)CC(C)(C)C(=O)O)cc1,T/C,[6],94 % of control
same,T/C,"endpoint: mean survival time, dose: 200.0 mg/kg/injection, schedule: Q01DX009 (ip), vehicle: saline with Tween-80",92 % of control
same,T/C,"endpoint: mean survival time, dose: 400.0 mg/kg/injection, schedule: Q01DX009 (ip), vehicle: saline with Tween-80",90 % of control

# From PubChem BioAssay AID248 (DTP/NCI, 2004)
